Measured values reported in ChEMBL document CHEMBL1201862, “PubChem BioAssay data set” (2004).
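48-hour exposure; five concentrations; linearly interpolated endpoints. The concentration for 50% growth inhibition is given as GI50.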 Active and inactive are the calls of the source. Cut-off read from the data, not from the text of the source: active = GI50 up to about 1.1 µM and inactive = higher.

Legend:
Assay in all cases: growth of human tumour cells (NCI), 48 h
LOX IMVI = tested on: LOX IMVI
SK-MEL-2 = tested on: SK-MEL-2
HL-60 = tested on: HL-60
HCC 2998 = tested on: HCC 2998
SN12C = tested on: SN12C
TK-10 = tested on: TK-10
CCRF-CEM = tested on: CCRF-CEM
A498 = tested on: A498
RXF 393 = tested on: RXF 393
OVCAR-3 = tested on: OVCAR-3
SR = tested on: SR
NCI-H23 = tested on: NCI-H23
OVCAR-4 = tested on: OVCAR-4
IGROV-1 = tested on: IGROV-1
OVCAR-8 = tested on: OVCAR-8
K562 = tested on: K562
ACHN = tested on: ACHN
NCI-H522 = tested on: NCI-H522
Malme-3M = tested on: Malme-3M

Measured: GI50

Nc1nc(SCCC/C=C/I)nc2c1ncn2C1OC(COP(=O)(O)O)C(O)C1O (stereo not drawn)
inactive: LOX IMVI > 100 µM | SK-MEL-2 > 100 µM | HL-60 > 100 µM | HCC 2998 > 100 µM | SN12C > 100 µM | TK-10 > 100 µM | CCRF-CEM > 100 µM | A498 > 100 µM | RXF 393 > 100 µM | OVCAR-3 > 100 µM | SR > 100 µM | NCI-H23 > 100 µM | OVCAR-4 > 100 µM | IGROV-1 > 100 µM | OVCAR-8 > 100 µM | K562 > 100 µM | ACHN > 100 µM | NCI-H522 > 100 µM | Malme-3M > 100 µM

Cn1c(=O)c2nc(NCCO)cnc2n(C)c1=O
inactive: SK-MEL-2 26.6 µM | HL-60 27.2 µM | HCC 2998 64.6 µM | SN12C > 100 µM | TK-10 > 100 µM | CCRF-CEM > 100 µM | A498 > 100 µM | RXF 393 35.6 µM | OVCAR-3 23.3 µM | SR 42.8 µM | NCI-H23 > 100 µM | OVCAR-4 62.7 µM | IGROV-1 > 100 µM | OVCAR-8 > 100 µM | K562 44.2 µM | ACHN > 100 µM | NCI-H522 21.5 µM | Malme-3M 44.7 µM

C=C(C)C1Cc2c(c3ccccc3n(C)c2=O)O1 (stereo not drawn)
inactive: LOX IMVI > 100 µM | SK-MEL-2 > 100 µM | HL-60 > 100 µM | SN12C > 100 µM | TK-10 > 100 µM | CCRF-CEM > 100 µM | A498 > 100 µM | OVCAR-3 > 100 µM | NCI-H23 > 100 µM | IGROV-1 > 100 µM | OVCAR-8 > 100 µM | K562 > 100 µM | ACHN > 100 µM | NCI-H522 > 100 µM | Malme-3M > 100 µM

N#CCCN(CCC#N)c1ccc(/C=C(/NC(=O)Nc2ccccc2Cl)NC(=O)c2cc([N+](=O)[O-])ccc2Cl)cc1
inactive: LOX IMVI > 100 µM | SK-MEL-2 > 100 µM | HCC 2998 > 100 µM | SN12C > 100 µM | TK-10 > 100 µM | CCRF-CEM 17.3 µM | RXF 393 > 100 µM | OVCAR-3 > 100 µM | SR 42.4 µM | OVCAR-4 > 100 µM | IGROV-1 > 100 µM | OVCAR-8 58.5 µM | K562 64.6 µM | ACHN 42.2 µM | NCI-H522 44.1 µM | Malme-3M > 100 µM
